Data reported in US10597388B2, “Pyridazinone herbicides” (FMC CORPORATION, priority 2014, dated 2020).

How the values were obtained:
Assay in all cases: Test D controlled growth environment herbicide test, pre- and postemergence
Format in all cases: in vivo
[1] = system: barley, spring (spring barley, Hordeum vulgare)
Source text: (§1) Seeds of plant species selected from bluegrass (annual bluegrass, Poa annua), blackgrass (Alopecurus myosuroides), Canada thistle (Cirsium arvense), canarygrass (Phalaris minor), chickweed (common chickweed, Stellaria media), geranium, cutleaf (cutleaf geranium, Geranium dissectum), galium (catchweed bedstraw, Galium aparine), bromegrass, downy (downy bromegrass, Bromus tectorum), field poppy (Papaver rhoeas), field violet (Viola arvensis), foxtail, green (green foxtail, Setaria viridis), deadnettle (henbit deadnettle, Lamium amplexicaule), ryegrass, Italian (Italian ryegrass, Lolium multiflorum), kochia (Kochia scoparia), lambsquarters (Chenopodium album), oilseed rape (Brassica napus), pigweed (Amaranthus retroflexus), chamomile (scentless chamomile, Matricaria inodora), Russian thistle (Salsola kali), speedwell (bird's-eye speedwell, Veronica persica), barley, spring (spring barley, Hordeum vulgare), wheat, spring (spring wheat, Triticum aestivum), buckwheat, wild (wild buckwheat, Polygonum convolvulus), mustard, wild (wild mustard, Sinapis arvensis), oat, wild (wild oat, Avena fatua), radish, wild (wild radish, Raphanus raphanistrum), windgrass (Apera spica-venti), barley, winter (winter barley, Hordeum vulgare), and wheat, winter (winter wheat, Triticum aestivum) were planted into a silt loam soil and treated preemergence with test chemicals formulated in a non-phytotoxic solvent mixture which included a surfactant.
(§2) At the same time, these species were planted in pots containing Redi-Earth® planting medium (Scotts Company, 14111 Scottslawn Road, Marysville, Ohio 43041) comprising spaghnum peat moss, vermiculite, wetting agent and starter nutrients and treated with postemergence applications of the test chemicals formulated in the same manner. Plants ranged in height from 2 to 18 cm (1- to 4-leaf stage). Treated plants and controls were maintained in a controlled growth environment for 14 to 21 d after which time all species were compared to controls and visually evaluated. Plant response ratings, summarized in Table D, are based on a scale of 0 to 100 where 0 is no effect and 100 is complete control. A dash (-) response means no test result.

[2] = system: wheat, spring (spring wheat, Triticum aestivum)
Source text: as §1, §2

[3] = system: mustard, wild (wild mustard, Sinapis arvensis)
Source text: as §1, §2

[4] = system: pigweed (Amaranthus retroflexus)
Source text: as §1, §2

[5] = system: oat, wild (wild oat, Avena fatua)
Source text: as §1, §2

[6] = system: field violet (Viola arvensis)
Source text: as §1, §2

[7] = system: wheat, winter (winter wheat, Triticum aestivum)
Source text: as §1, §2

[8] = system: deadnettle (henbit deadnettle, Lamium amplexicaule)
Source text: as §1, §2

[9] = system: Russian thistle (Salsola kali)
Source text: as §1, §2

[10] = system: windgrass (Apera spica-venti)
Source text: as §1, §2

[11] = system: bluegrass (annual bluegrass, Poa annua)
Source text: as §1, §2

[12] = system: foxtail, green (green foxtail, Setaria viridis)
Source text: as §1, §2

[13] = system: kochia (Kochia scoparia)
Source text: as §1, §2

[14] = Postemergence, 31 g ai/ha, scale 0 to 100 (0 no effect, 100 complete control)
[15] = Postemergence, 125 g ai/ha, visual rating on scale 0 (no effect) to 100 (complete control), 14 to 21 d
[16] = Postemergence, 250 g ai/ha, scale 0 to 100 (0 no effect, 100 complete control)
[17] = Preemergence, 62 g ai/ha, scale 0 to 100 (0 no effect, 100 complete control)
[18] = Preemergence, 125 g ai/ha, scale 0 to 100 (0 no effect, 100 complete control)
[19] = Preemergence, 250 g ai/ha, scale 0 to 100 (0 no effect, 100 complete control)
[20] = postemergence, 62 g ai/ha, scale 0 to 100, 0 no effect, 100 complete control

CC(=O)Oc1c(C)nn(C)c(=O)c1-c1c(C)sc2c(C)cc(C)cc12 [Compound 27]
Plant response rating, Barley, Spring [1, 14]: 0 | Plant response rating, Barley, Spring [1, 15]: 5 | Plant response rating, Barley, Spring [1, 16]: 10 | Plant response rating (scale of 0 to 100), Barley, Spring ([1]; Preemergence, 31 g ai/ha): 0 | Plant response rating, Barley, Spring [1, 17]: 0 | Plant response rating, Barley, Spring [1, 18]: 0 | Barley, Spring plant response rating [1, 19]: 0 | Plant response rating, Barley, Spring [1, 20]: 0 | Wheat, Spring plant response rating [2, 14]: 0 | Plant response rating, Wheat, Spring [2, 15]: 10 | Plant response rating, Wheat, Spring [2, 16]: 20 | Plant response rating (scale of 0 to 100), Wheat, Spring ([2]; Preemergence, 31 g ai/ha): 0 | Plant response rating, Wheat, Spring [2, 17]: 0 | Plant response rating, Wheat, Spring [2, 18]: 5 | Plant response rating, Wheat, Spring [2, 19]: 25 | Plant response rating, Wheat, Spring [2, 20]: 5 | Mustard, Wild plant response rating [3, 14]: 15 | Plant response rating, Mustard, Wild [3, 15]: 30 | Plant response rating, Mustard, Wild [3, 16]: 75 | Plant response rating (scale of 0 to 100), Mustard, Wild ([3]; Preemergence, 31 g ai/ha): 40 | Plant response rating, Mustard, Wild [3, 17]: 40 | Plant response rating, Mustard, Wild [3, 18]: 45 | Plant response rating, Mustard, Wild [3, 19]: 65 | Plant response rating, Mustard, Wild [3, 20]: 40 | Pigweed plant response rating [4, 14]: 75 | Plant response rating, Pigweed [4, 15]: 95 | Plant response rating, Pigweed [4, 16]: 95 | Plant response rating (scale of 0 to 100), Pigweed ([4]; Preemergence, 31 g ai/ha): 100 | Plant response rating, Pigweed [4, 17]: 100 | Plant response rating, Pigweed [4, 18]: 100 | Plant response rating, Pigweed [4, 19]: 100 | Plant response rating, Pigweed [4, 20]: 85 | Oat, Wild plant response rating [5, 14]: 75 | Plant response rating, Oat, Wild [5, 15]: 90 | Plant response rating, Oat, Wild [5, 16]: 98 | Plant response rating (scale of 0 to 100), Oat, Wild ([5]; Preemergence, 31 g ai/ha): 85 | Plant response rating, Oat, Wild [5, 17]: 85 | Plant response rating, Oat, Wild [5, 18]: 90 | Plant response rating, Oat, Wild [5, 19]: 95 | Plant response rating, Oat, Wild [5, 20]: 85 | Field Violet plant response rating [6, 14]: 75 | Plant response rating, Field Violet [6, 15]: 75 | Plant response rating, Field Violet [6, 16]: 85 | Plant response rating (scale of 0 to 100), Field Violet ([6]; Preemergence, 31 g ai/ha): 80 | Plant response rating, Field Violet [6, 17]: 90 | Plant response rating, Field Violet [6, 18]: 95 | Plant response rating, Field Violet [6, 19]: 95 | Plant response rating, Field Violet [6, 20]: 70 | Wheat, Winter plant response rating [7, 14]: 0 | Plant response rating, Wheat, Winter [7, 15]: 5 | Plant response rating, Wheat, Winter [7, 16]: 10 | Plant response rating (scale of 0 to 100), Wheat, Winter ([7]; Preemergence, 31 g ai/ha): 0 | Plant response rating, Wheat, Winter [7, 17]: 0 | Plant response rating, Wheat, Winter [7, 18]: 0 | Plant response rating, Wheat, Winter [7, 19]: 5 | Plant response rating, Wheat, Winter [7, 20]: 5 | Deadnettle plant response rating [8, 14]: 5 | Plant response rating, Deadnettle [8, 15]: 30 | Plant response rating, Deadnettle [8, 16]: 60 | Plant response rating (scale of 0 to 100), Deadnettle ([8]; Preemergence, 31 g ai/ha): 0 | Plant response rating, Deadnettle [8, 17]: 0 | Plant response rating, Deadnettle [8, 18]: 55 | Plant response rating, Deadnettle [8, 19]: 80 | Plant response rating, Deadnettle [8, 20]: 5 | Russian Thistle plant response rating [9, 14]: 65 | Plant response rating, Russian Thistle [9, 15]: 70 | Plant response rating, Russian Thistle [9, 16]: 70 | Plant response rating (scale of 0 to 100), Russian Thistle ([9]; Preemergence, 31 g ai/ha): 0 | Plant response rating, Russian Thistle [9, 17]: 10 | Plant response rating, Russian Thistle [9, 18]: 65 | Plant response rating, Russian Thistle [9, 19]: 75 | Plant response rating, Russian Thistle [9, 20]: 75 | Windgrass plant response rating [10, 14]: 75 | Plant response rating, Windgrass [10, 15]: 80 | Plant response rating, Windgrass [10, 16]: 90 | Plant response rating (scale of 0 to 100), Windgrass ([10]; Preemergence, 31 g ai/ha): 75 | Plant response rating, Windgrass [10, 17]: 85 | Plant response rating, Windgrass [10, 18]: 100 | Plant response rating, Windgrass [10, 19]: 100 | Plant response rating, Windgrass [10, 20]: 75 | Bluegrass plant response rating [11, 14]: 15 | Plant response rating, Bluegrass [11, 15]: 30 | Plant response rating, Bluegrass [11, 16]: 40 | Plant response rating (scale of 0 to 100), Bluegrass ([11]; Preemergence, 31 g ai/ha): 25 | Plant response rating, Bluegrass [11, 17]: 35 | Plant response rating, Bluegrass [11, 18]: 70 | Bluegrass plant response rating [11, 19]: 80 | Plant response rating, Bluegrass [11, 20]: 25 | Foxtail, Green plant response rating [12, 14]: 70 | Plant response rating, Foxtail, Green [12, 15]: 80 | Plant response rating, Foxtail, Green [12, 16]: 80 | Plant response rating (scale of 0 to 100), Foxtail, Green ([12]; Preemergence, 31 g ai/ha): 95 | Plant response rating, Foxtail, Green [12, 17]: 95 | Plant response rating, Foxtail, Green [12, 18]: 100 | Plant response rating, Foxtail, Green [12, 19]: 100 | Plant response rating, Foxtail, Green [12, 20]: 80 | Kochia plant response rating [13, 14]: 45 | Plant response rating, Kochia [13, 15]: 55 | Plant response rating, Kochia [13, 16]: 75 | Plant response rating (scale of 0 to 100), Kochia ([13]; Preemergence, 31 g ai/ha): 0 | Plant response rating, Kochia [13, 17]: 20 | Plant response rating, Kochia [13, 18]: 30 | Plant response rating, Kochia [13, 19]: 60 | Plant response rating, Kochia [13, 20]: 55
